Experimental data published in paper PMC7232442, “Biofilm Eradication by Symmetrical Selenoesters for Food-Borne Pathogens” (Microorganisms, 2020).
Converted amounts (≈) assume the structure as drawn. “Also recorded” adds a separate entry of the source. Counter-ions that a name gives are not always drawn.

What was measured:
[1] = tested on: C. violaceum 026 sensor strain with AHL producer E. cloacae 31298 (violacein production); test: Quorum sensing (QS) inhibition, parallel inoculation disk diffusion; format: cell-based, Chromobacterium violaceum; conditions: disc with 10 μL compound, starting concentration ½ MIC; 24–48 h
Method: The QS inhibitory effect of selenocompounds was examined on the AHL producer E. cloacae strain and C. violaceum sensor bacterial strain. These strains were inoculated in parallel. The QS inhibition was monitored by agar diffusion method on LB* agar plate as described previously. Filter paper discs (7.0 mm in diameter) were placed between the parallel inoculated strains and impregnated with 10 μL compounds. Starting concentration of the compounds was ½ MIC. The agar plates were incubated at room temperature (20 °C) for 24–48 h and the inhibition of violacein production was measured.

S. aureus ATCC 25923 [2] = test: Real-time ethidium bromide accumulation assay; format: cell-based, Staphylococcus aureus; design: key to Relative Fluorescence Index (RFI): RFI = (RFtreated − RFuntreated)/RFuntreated at minute 60; conditions: for Relative Fluorescence Index (RFI): S. aureus ATCC 25923, ½ MIC, minute 60; for EPI activity (in words): reference (sensitive) S. aureus, 60 min
Method: (§1) The impact of compounds on EB accumulation was determined by the automated EB method using a CLARIOstar Plus plate reader (BMG Labtech, UK). Firstly, the bacterial strain was incubated until it reached an optical density (OD) of 0.6 at 600 nm. The culture was washed with phosphate buffered saline (PBS; pH 7.4) and centrifuged at 13,000× g for 3 min, the cell pellet was re-suspended in PBS. The compounds were added at ½ MIC concentration to PBS containing a non-toxic concentration of EB (1 µg/mL). Then, 50 μL of the EB solution containing the compound were transferred into 96-well black microtiter plate (Greiner Bio-One Hungary Kft, Hungary), and 50 μL of bacterial suspension (OD600 0.6) were added to the each well. Then, the plates were placed into the CLARIOstar plate reader, and the fluorescence was monitored at excitation and emission wavelengths of 530 nm and 600 nm every minute for one hour on a real-time basis. From the real-time data, the activity of the compounds, namely the relative fluorescence index (RFI) of the last time point (minute 60) of the EB accumulation assay, was calculated according to the following formula:RFI = (RFtreated − RFuntreated)/RFuntreated(2) where RFtreated is the relative fluorescence (RF) at the last time point of EB retention curve in the presence of an inhibitor, and RFuntreated is the RF at the last time point of the EB retention curve of the untreated control having the solvent control (DMSO).

S. aureus MRSA 272123 [3] = test: Real-time ethidium bromide accumulation assay; format: cell-based, Staphylococcus aureus; conditions: for Relative Fluorescence Index (RFI): S. aureus MRSA 272123, ½ MIC, minute 60; for EPI activity (in words): resistant S. aureus MRSA, 60 min
Method: as §1

[4] = tested on: S. Typhimurium SE02 ΔacrB; test: Real-time ethidium bromide accumulation assay; format: cell-based, Salmonella enterica serovar Typhimurium; conditions: S. Typhimurium SE02 ΔacrB; ½ MIC; minute 60
Method: as §1

[5] = tested on: S. Typhimurium SE01 Wild-Type; test: Real-time ethidium bromide accumulation assay; format: cell-based, Salmonella enterica serovar Typhimurium; conditions: ½ MIC, minute 60
Method: as §1

[6] = tested on: MRC-5 human embryonal lung fibroblast cells; test: Cytotoxicity assay (MTT); format: cell-based; conditions: MRC-5 cells
Method: The adherent MRC-5 human embryonal lung fibroblast cells were cultured in 96-well flat-bottomed microtiter plates, using EMEM supplemented with 10% heat-inactivated fetal bovine serum. The density of the cells was adjusted to 1 × 10^4 cells in 100 μL per well, the cells were seeded overnight at 37 °C, 5% CO2, then the medium was removed from the plates containing the cells, and the dilutions of selenocompounds previously made in a separate plate were added to the cells in 200 μL.
The culture plates were incubated at 37 °C for 24 h; at the end of the incubation period, 20 μL of MTT (thiazolyl blue tetrazolium bromide, Sigma) solution (from a stock solution of 5 mg/mL) was added to each well. After incubation at 37 °C for 4 h, 100 μL of sodium dodecyl sulfate (SDS; Sigma) solution (10% in 0.01 M HCI) was added to each well and the plates were further incubated at 37 °C overnight. Cell growth was determined by measuring the optical density (OD) at 540/630 nm with Multiscan EX ELISA reader (Thermo Labsystems, Cheshire, WA, USA). Inhibition of the cell growth was determined according to the formula below:IC50 = 100 − [(ODsample − ODmedium control)/(ODcell control − ODmedium control)] × 100(1)
Results are expressed in terms of IC50, defined as the inhibitory dose that reduces the growth of the cells exposed to the tested compounds by 50%.

[7] = tested on: S. Typhimurium SE03 ΔacrA; test: MIC determination by microdilution method; format: cell-based, Salmonella enterica serovar Typhimurium; conditions: Salmonella enterica
Method: (§2) The minimum inhibitory concentrations (MICs) of compounds were determined according to the Clinical and Laboratory Standard Institute guidelines (CLSI). MIC values of the compounds were determined by visual inspection. The solvent was also assayed to ensure there was no antibacterial effect and the concentration (1 v/v%) applied in the assays had no antibacterial activity. DMSO was used at subinhibitory concentration (1 v/v%) in the assays.

[8] = tested on: S. Typhimurium SE02 ΔacrB; test: MIC determination by microdilution method; format: cell-based, Salmonella enterica serovar Typhimurium; conditions: Salmonella enterica
Method: as §2

[9] = tested on: S. Typhimurium SE01 Wild-Type; test: MIC determination by microdilution method; format: cell-based, Salmonella enterica serovar Typhimurium; conditions: Salmonella enterica; S. Typhimurium SE01 wild-type; read-out: MIC
Method: as §2

[10] = tested on: S. Typhimurium SE39 ΔtolC; test: MIC determination by microdilution method; format: cell-based, Salmonella enterica serovar Typhimurium; conditions: Salmonella enterica
Method: as §2

[11] = tested on: S. Typhimurium SE03 ΔacrA; test: Real-time ethidium bromide accumulation assay; format: cell-based, Salmonella enterica serovar Typhimurium; conditions: S. Typhimurium SE03 ΔacrA; ½ MIC; minute 60
Method: as §1

[12] = tested on: S. Typhimurium SE39 ΔtolC; test: Real-time ethidium bromide accumulation assay; format: cell-based, Salmonella enterica serovar Typhimurium; conditions: S. Typhimurium SE39 ΔtolC; ½ MIC; minute 60
Method: as §1

S. aureus MRSA 272123 [13] = test: MIC determination by microdilution method; format: cell-based; conditions: Staphylococcus aureus; S. aureus MRSA 272123; read-out: MIC
Method: as §2

[14] = tested on: Staphylococcus aureus ATCC 25923; test: MIC determination by microdilution method; format: cell-based; conditions: S. aureus ATCC 25923
Method: as §2

S. aureus MRSA 272123 [15] = test: Resistance modulation assay (checkerboard) with TET or CIP; format: cell-based, Staphylococcus aureus; conditions: for Interaction with CIP: MRSA strain; for X-fold reduction of MIC of CIP: compound at ½ MIC, with CIP
Method: (§3) The resistance modulation effect of compounds with ciprofloxacin (CIP) and tetracycline (TET) antibiotics were evaluated by the checkerboard method on S. aureus strains. Briefly, CIP or TET was diluted in a 96-well microtiter plate by two-fold serial dilution in MH broth and then the compounds were added at subinhibitory concentrations (½ MIC). In this assay, only the tested compounds with well-defined MIC values were tested. Finally, 10^−4 dilution of the overnight bacterial culture in MH was added to each well. The final volume was 200 µL in each well. The microtiter plates were incubated at 37 °C for 18 h. MIC values in the presence of the antibiotics alone and in combination with Se-compounds were determined by visual inspection.

S. aureus ATCC 25923 [16] = test: as above; format: cell-based, Staphylococcus aureus
Method: as §3

[17] = tested on: reference S. aureus strain (ATCC 25923); test: Biofilm formation using crystal violet; format: cell-based, Staphylococcus aureus; conditions: sensitive (reference) S. aureus
Method: (§4) The anti-biofilm effect of the tested compounds against S. aureus strains and wild-type S. Typhimurium SE01 was measured using crystal violet (CV; 0.1% (v/v)). This dye is used to detect the total biofilm biomass formed. Overnight cultures were diluted to OD of 0.1 at 600 nm in TSB medium. Then, the bacterial cultures were added to 96-well microtiter plates and the compounds were added at ½ MIC concentration. The final volume was 200 μL in each well. The microtiter plates were incubated at 30 °C for 48 h with gentle agitation (100 rpm). After the incubation period, TSB medium was discarded, and the plates were washed with tap water to remove unattached cells. Then 200 μL crystal violet was added to the wells and incubated for 15 min at room temperature. Then, CV was removed from the wells and the plates were washed again with tap water, and 200 μL of 70% ethanol was added to the wells. Finally, the biofilm formation was determined by measuring the OD at 600 nm using Multiscan EX ELISA plate reader (Thermo Labsystems, Cheshire, WA, USA). The anti-biofilm effect of compounds was expressed in the percentage (%) of decrease in biofilm formation.

S. aureus MRSA = test: Biofilm formation using crystal violet; format: cell-based, Staphylococcus aureus
Method: as §4

[18] = Staphylococcus aureus, ATCC25923

Row | SMILES | QS zone of inhibition [1] [mm] | Relative Fluorescence Index (RFI) (S. aureus ATCC 25923 [2]) | EPI activity (in words) (S. aureus ATCC 25923 [2]) | Relative Fluorescence Index (RFI) (S. aureus MRSA 272123 [3]) | EPI activity (in words) (S. aureus MRSA 272123 [3]) | Relative Fluorescence Index (RFI) [4] | Relative Fluorescence Index (RFI) [5] | IC50 ([6]; Homo sapiens, MRC5, 24 h) [µM] | IC50 ([6]; 24 h) [µM] | MIC [7] [µM] | MIC [8] [µM] | MIC [9] [µM] | MIC [10] [µM] | Relative Fluorescence Index (RFI) [11] | Relative Fluorescence Index (RFI) [12] | MIC (S. aureus MRSA 272123 [13]) [µM] | MIC [14] [µM] | MIC [14, 18] [µM] | Interaction with CIP (S. aureus MRSA 272123 [15]) | X-fold reduction of MIC of CIP (S. aureus MRSA 272123 [15]; S. aureus MRSA 272123) [fold] | other results
1 | CC(CN1c2ccccc2Sc2ccccc21)N(C)C (stereo not shown) [Promethazine, promethazine, reference compound] | 46 | – | – | – | – | – | – | – | – | – | – | – | – | – | – | – | – | – | – | – | –
2 | COC(=O)C[Se]C(=O)c1ccc(C(=O)[Se]CC(=O)OC)cc1 [Se-E1] | 41 | 0.98 | effective | 0.19 | effective | −0.03 | −0.10 | > 75 | 77.9 | > 100 | > 100 | > 100 | > 100 | 0.03 | 0.15 | 100 (≈ 43.6 µg/mL) | 12.5 (≈ 5.45 µg/mL) | 12.5 (≈ 5.45 µg/mL) | – | – | –
3 | COC(=O)C[Se]C(=O)c1cc(C(=O)[Se]CC(=O)OC)cc(C(=O)[Se]CC(=O)OC)c1 [Se-E3] | – | 4.15 | most prominent EPI activity; also recorded: significantly effective pump inhibition | 0.47 | most prominent EPI activity; also recorded: significantly effective pump inhibition | 0.08 | 0.26 | > 75 | 76.6 | > 100 | > 100 | > 100 | > 100 | 0.27 | 0.25 | 100 (≈ 61.5 µg/mL) | 12.5 (≈ 7.69 µg/mL) | 12.5 (≈ 7.69 µg/mL) | synergism | 2 | X-fold reduction of MIC of TET (S. aureus ATCC 25923 [16]; S. aureus ATCC 25923, compound at ½ MIC, with TET): 2 fold; Interaction with TET (S. aureus ATCC 25923 [16]; methicillin-susceptible S. aureus ATCC 25923): synergism; Anti-biofilm effect (in words) [17]: significant biofilm inhibition; Anti-biofilm effect (in words) (S. aureus MRSA): significant biofilm inhibition
4 | CC(=O)C[Se]C(=O)c1ccc(C(=O)[Se]CC(C)=O)cc1 [Se-K1] | 37 | 0.1 | – | −0.15 | – | 0.10 | −0.16 | 0.54 | – | – | – | 50 (≈ 20.2 µg/mL) | – | 0.17 | 0.27 | 1.56 (≈ 0.631 µg/mL) | 0.39 (≈ 0.158 µg/mL) | 0.39 (≈ 0.158 µg/mL) | synergism | 2 | –
5 | CN(C)[C@@H]1C(O)=C(C(N)=O)C(=O)[C@@]2(O)C(O)=C3C(=O)c4c(O)cccc4[C@@](C)(O)[C@H]3C[C@@H]12 [TET, tetracycline-hydrochloride, reference compound] | – | – | – | – | – | – | – | – | – | – | – | – | – | – | – | – | – | – | – | – | MIC of the antibiotic alone (S. aureus MRSA 272123 [15]; S. aureus MRSA 272123, no selenocompound): 14.06 µM; MIC of the antibiotic alone (S. aureus ATCC 25923 [16]; S. aureus ATCC 25923, no selenocompound): 0.88 µM
